Data from patent US12604893B2, “Compositions and methods for modulating microbiomes” (BOYCE THOMPSON INSTITUTE FOR PLANT RESEARCH, INC., priority 2019, dated 2026).

How the values were obtained:
P. fluorescens = test: Bacterial growth assay, media supplemented with ascarosides; format: cell-based
Text: (§1) To test whether bacteria respond to ascarosides, a simple growth assay was utilized. […] Enhanced growth and rhizosphere colonization of P. fluorescens has been observed in the presence of nematodes (Knox, et al. (2004) Appl. Environ. Microbiol., 70:4666-4671) and this may be due to ascr #18 excretion. Next, a wider selection of bacterial species from soil and human environments, including P. tabacum, P. fluorescens, S. marcescens, E. faecalis, and B. subtilis, was studied. […] In contrast to ascr #18, the effects of other ascarosides such as ascr #9, ascr #10, and ascr #3 were species-specific.

S. marcescens = test: as above; format: cell-based
Text: as §1

E. coli [1] = test: as above; format: cell-based; conditions: growth media supplemented with 1 and 10 nM
Text: as §1

A. tumefaciens = test: as above; format: cell-based; conditions: growth media supplemented with 1 and 10 nM
Text: as §1

E. faecalis = test: as above; format: cell-based
Text: as §1

P. tabacum = test: as above; format: cell-based
Text: as §1

P. syringae [2] = test: as above; format: cell-based; conditions: growth media supplemented with 1 and 10 nM; FIG. 1A
Method: (§2) FIG. 1A provides a graph and images of P. syringae growth. Bacterial growth media were supplemented with different concentrations of ascarosides. Ten-fold serially diluted bacterial cells were plated and bacterial growth and quantification was performed 3 days post incubation. FIG. 1B provides images of B. subtilis growth. Bacterial growth media were supplemented with different concentrations of ascarosides. Ten-fold serially diluted bacterial cells were plated and bacterial growth and quantification was performed 18 hours post incubation. FIG. 1C provides a graph showing biofilm formation of S. marcescens in the presence of 1 nM of ascr #3, ascr #9, ascr #10, and ascr #18. *P<0.05, **P<0.001, two-tailed t-test. Bacterial growth and biofilm assays have been independently repeated at least three times.
as §1

B. subtilis = test: as above; format: cell-based; conditions: FIG. 1B
Method: as §2, §1

soil microbiome = test: Soil samples treated with ascr #18, microbial DNA sequencing (16s rRNA, ITS); conditions: low nanomolar concentrations, 24 hours; preliminary analyses
Method: (§3) To investigate whether ascarosides affect soil microbiomes, soil samples were collected from sites free from pesticide and fertilizer applications to ensure inclusion of a representative diversity of natural microbes (Panke-Buisse, et al. (2015) ISME J., 9:980-9; Lebeis, et al. (2015) Science 349:860-864). The soil samples were treated with low nanomolar concentrations of ascr #18 for 24 hours followed by microbial DNA and metabolome extraction. DNA sequencing was performed by targeting conserved 16s rRNA for bacteria and internal transcribed spacer (ITS) gene for fungi (Panke-Buisse, et al. (2015) ISME J., 9:980-9).

soil samples = test: Comparative metabolomics of soil samples treated with ascr #18; format: in vitro ADME
Method: as §3
(§4) To identify which specific microbes from the soil are responsible for ascr #18 metabolism, the effect of ascr #18 on individual microbes was tested. Bacteria and fungi in the soil interact with nematodes in diverse ways (Lakshmanan, et al. (2014) Plant Physiol., 166:689-700; Knox, et al. (2004) Appl. Environ. Microbiol., 70:4666-4671; Siddiqui, et al. (1999) Bioresour. Technol., 69:167-179). Microbial metabolism of ascr #18 was assessed in three bacteria, E. coli, Agrobacterium tumefaciens, and P. syringae and two fungi, Aspergillus fumigatus and A. flavus, all of which are commonly found in soil. […] Whereas, like fungi, all tested plants and animals are capable of metabolizing ascr #18, it appears that bacteria (and perhaps other prokaryotes) lack this ability.

E. coli [3] = test: Microbial metabolism of ascr #18; format: in vitro ADME
Method: as §4

[4] = tested on: Agrobacterium tumefaciens; test: Microbial metabolism of ascr #18; format: in vitro ADME
Method: as §4

P. syringae [5] = test: Microbial metabolism of ascr #18; format: in vitro ADME
Method: as §4

Aspergillus fumigatus = test: Microbial metabolism of ascr #18; format: in vitro ADME
Method: as §4

A. flavus = test: Microbial metabolism of ascr #18; format: in vitro ADME
Method: as §4

| SMILES | bacterial growth of P. fluorescens (P. fluorescens) | bacterial growth of S. marcescens (S. marcescens) | bacterial growth of E. coli (E. coli [1]) | bacterial growth of A. tumefaciens (A. tumefaciens) | bacterial growth of E. faecalis (E. faecalis) | bacterial growth of P. tabacum (P. tabacum) | bacterial growth of P. syringae (P. syringae [2]) | bacterial growth of B. subtilis (B. subtilis) | effect on microbial composition of the soil (soil microbiome) | metabolism of ascr #18 in soil samples (soil samples) | metabolism of ascr #18 by E. coli (E. coli [3]) | metabolism of ascr #18 by Agrobacterium tumefaciens [4] | metabolism of ascr #18 by P. syringae (P. syringae [5]) | metabolism of ascr #18 by Aspergillus fumigatus (Aspergillus fumigatus) | metabolism of ascr #18 by A. flavus (A. flavus) |
| --- | --- | --- | --- | --- | --- | --- | --- | --- | --- | --- | --- | --- | --- | --- | --- |
| CC1O[C@@H](O[C@@H](C)CCCCCCCCC(=O)O)C(O)C[C@H]1O (stereo in doubt) [ascr #18, (10R)-(3′R,5′R-dihydroxy-6'S-methyl-(2H)-tetrahydropyran-2-yloxy)-undecanoic acid] | generally promoted growth | generally promoted growth | not affected | not affected | generally promoted growth | generally promoted growth | significant growth increase | generally promoted growth | shifts microbial composition of the soil | extensively edited into shorter side-chained ascarosides | none of the bacteria were able to metabolize | none of the bacteria were able to metabolize | none of the bacteria were able to metabolize | metabolized into shorter-chained ascarosides | metabolized into shorter-chained ascarosides |
| CC1O[C@@H](O[C@H](C)CCCC/C=C/C(=O)O)C(O)C[C@H]1O (stereo partly drawn) [ascr #3] | suppressed | promoted growth |  |  |  |  |  | suppressed |  |  |  |  |  |  |  |
| C[C@H](CCC(=O)O)O[C@@H]1O[C@@H](C)[C@H](O)C[C@H]1O [ascr #9] | suppressed | promoted growth |  |  |  |  |  | suppressed |  |  |  |  |  |  |  |
| CC1O[C@@H](O[C@H](C)CCCCCCC(=O)O)C(O)C[C@H]1O (stereo partly drawn) [ascr #10] | suppressed | promoted growth |  |  |  |  |  | suppressed |  |  |  |  |  |  |  |
